The text below walks through data of publication PMC12794186, “Covalent Alkynylpyridopyrimidinones Targeting Cysteine 775 of the Epidermal Growth Factor Receptor Overcome Resistance to Current Therapies” (Journal of Medicinal Chemistry, 2025).

Each structure is given as a SMILES string.

One experiment has as its target mLTC-EGFR (Homo sapiens, UniProt P00533, C797S/L858R/T790M). The experiment can be described thus: Intact protein mass spectrometry, covalent adduct formation. Type of experiment: binding. The following applies: intact protein mass spectrometry.
In experiment [1] the test system is H1975 (L858R, T790M) cells. In words: Adherent cell growth inhibition (CyQUANT). The following applies: Homo sapiens, NCI-H1975; replenishment of compound every 72 h; read-out: H1975 EGFR GI50. Type of experiment: cell-based. The procedure:
(§1) For adherent cell assays, each cell line was plated on day 0 in a 96-well plate at a density known to allow for exponential growth over 72 h. After 24 h, the compounds were diluted to the required concentrations in DMEM + 10% FBS media, maintaining a consistent final DMSO concentration of 0.1%. […] Growth inhibition was then assessed using a CyQUANT Direct Cell Proliferation assay (Invitrogen Cat No. C35011) following the manufacturer’s instructions. Fluorescence intensity (ex/em 480/520 nm) values were acquired using a PHERAstar microplate reader reader (BMG Labtech) and values were expressed as a percentage of the average DMSO treated value.

For a further experiment, the system named is A431 (WT-EGFR) cells. In words: Adherent cell growth inhibition (CyQUANT). The following applies: Homo sapiens, A-431; replenishment of compound every 72 h. The experiment is classed as cell-based. On the procedure: as §1
The test system of another experiment is FLT3. In words: Kinase selectivity panel. Type of experiment: binding. The following applies: 1.0 µM.
In experiment [2] the test system is pERK1/2 phosphorylation in H1975 (L858R, T790M) cells. In words: Western blot of ERK1/2 phosphorylation. The following applies: H1975, 4 h exposure. Type of experiment: cell-based. On the procedure:
Cells, seeded on the previous day, were incubated with test compound at the indicated concentrations or DMSO (0.1%) for 4 h. Cells were lysed in Phosphosafe extraction buffer (Merck, Cat. No. 71296) combined with cOmplete Protease Inhibitor Cocktail (Merck, Cat. No. 4693116001) prepared as per the manufacturer’s instructions. Protein concentrations were determined using BCA Protein Assay Kit (Thermo Scientific, Cat. No. 23227). Preparation of lysates and Western blotting was performed twice as independent experiments.
Samples were prepared by diluting lysates in PBS to the desired concentration and before adding 4X XT sample buffer. Samples were then denatured at 98 °C for 5 min and then centrifuged to remove the residue. […] The quality of transfer was assessed using Ponceau S Stain (Sigma-Aldrich Cat. No. p7170).
Primary antibodies raised to EGFR (CST Cat. No. 4267), phospho-EGFR (CST Cat. No. 3777), phospho-p44/42 MAPK(ERK1/2) (CST Cat. No. 9101S) and p44/42 MAPK (CST Cat. No. 9102S) were diluted (1:1000) in 5% BSA w/v. Loading control antibodies were prepared in 5% milk w/v with 1× TBS/T (0.1 v/v) solution at a determined optimum concentration.
Proteins were detected using Clarity ECL substrate (Bio-Rad) and imaged using a Licor Odyssey FC.

The subject of another experiment is TYK2. The experiment can be described thus: Kinase selectivity panel. Type of experiment: binding. The note with it: 1.0 µM.
A further experiment deals with panel of 394 kinases. The experiment can be described thus: Kinase selectivity panel, summary. Type of experiment: binding. The following applies: 1.0 μM.

Turning to `C#Cc1cc(=O)n(-c2ccccc2)c2nc(Nc3ccc(N(C)CCN(C)C)cc3)ncc12` [Compound 7, 2-((4-((2-(Dimethylamino)ethyl)(methyl)amino)phenyl)amino)-5-ethynyl-8-phenylpyrido[2,3-d]pyrimidin-7(8H)-one], the “covalent adduct formation, in words” value at mLTC-EGFR is “formed only a single adduct”. In addition, the GI50 in experiment [1] came to 1.1 ± 1.1 µM; in the experiment on A431 (WT-EGFR) cells, 2.7 ± 1.1 µM. Further, the results for the “Mean (Percent Control)” value in the experiment with FLT3 and with TYK2 were 15 Percent Control and 58.5 Percent Control, respectively. In addition, the “reduction in ERK1/2 phosphorylation (Western blot)” value in experiment [2] is listed as “concomitant reduction in ERK1/2 phosphorylation”. The “number of kinases showing >75% inhibition” value in the experiment with panel of 394 kinases is reported as 10.
